Data set [1] in a line: Determination of D2-AA and D2-LA concentrations in CSF and RBCs in a single patient (Example 1). An excerpt:
This example determines the relative concentration of D2-AA in the CSF and in RBCs in order to determine a correlation between these two concentrations. Specifically, a patient was continuously provided with a daily dose of 9 grams of D2-LA ethyl ester (which is 8.64 grams of active discounting for impurities and removal of the ethyl ester) over about a six-month period. Periodic samples of blood and CSF were taken and the concentration of both D2-LA and D-2AA in both the RBCs and the CSF were measured. In all cases, the D2-AA was obtained by deacylation of the ethyl ester of linoleic acid in the gastrointestinal tract followed by conversion of D2-LA in vivo to D2-AA.

Data set [2] deals with patients suffering from ALS. Kind of data set: ALSFRS-R rate of functional decline in ALS patients treated with D2-LA (Comparative Example A). Type of data set: in vivo, human. How it is done:
(§1) Patients suffering from ALS were treated with D2-LA over a period of time. […] Some patients were provided 2 grams of 11,11-D-2 LA per day as opposed to the loading dose of 9 grams per day.
(§2) Functional scores for each of the patients (ALSFRS-R results) at the end of therapy were compared to the natural history scores at the start of therapy.

A further data set deals with patients with ALS. Kind of data set: ALSFRS-R rate of functional decline in ALS patients on primer/maintenance dosing regimen (Example 3). The class given is in vivo, human. The conditions noted are these: for Annualized average reduction in the rate of disease progression: 9 grams then 5 grams daily, vs natural history. The procedure: As set forth in the examples below, the rate of functional decline is predicated on measuring an individual's, or a cohort's, average for the natural history of disease progression. Next, the individual or cohort average for the functional decline is determined at a period of time such as at 3, 6 or 12 months after initiation of therapy. The rate of decline based on the average of the natural history of the cohort is set as the denominator. The numerator is set as the delta between the rate of the natural history of disease progression and the rate of functional decline after a set period of treatment per this invention. The resulting fraction is the multiplied by 100 to give a percent change. The following exemplifies this analysis.
This example illustrates the reduction in the rate of disease progression in patients with ALS treated by the dosing methods described herein, this example evidences that the amount of oxidized PUFA products has been reduced to a level that allows the otherwise impaired regulatory enzymes are able to neutralize substantially all of these oxidized products now generated. Specifically, a cohort of 3 patients was placed on a dosing regimen consisting of a first dosing component (primer dose) of about 9 grams of D2-LA ethyl ester daily for a period of at least 30 days and then all three patients were transitioned to a second dosing component (maintenance dose) of 5 grams of D2-LA ethyl ester.
The functionality of each of the patients was evaluated periodically using the ALSFRS-R protocol. The patients continued on the dosing regimen for a period of 6 months (patient A) or 1 year (patient B) or for 9 months (patient C). Patient C died at the end of 9 months and their death was attributed to factors other than ALS cardiomyopathy. Before initiation of therapy, the natural history of each patient in the cohort was determined and an average annual rate of functional decline was measured at 21.
The annualized progression of the disease, as measured by an average annual rate of functional decline for all three patients starting at the time that dosing began and terminating at the end of the dosing regimen and then annualized as described above, was measured as 2.1. Using the formula described above, one obtains the following: […]

Data set [3] relates to infants suffering from INAD. Kind of data set: Open label treatment study of INAD patients (Example 6). The class given is in vivo, human. The procedure:
Novel and conventional developmental neurologic assessment scales appropriate to the disease and which measure vital function in different parts of the brain were applied at base line and at 6 monthly intervals and the health and well-being of the infants were assessed continuously for 1-2 years, including any aspiration pneumonia, hospitalizations and deaths.

The test system of the next data set is murine fibroblasts. The conditions noted are these: for % Cell Survival: murine fibroblasts treated with 50 micromolar erastin, plate dilution assay; for Level of protection against LPO induced cell death relative to 13,13-D2-arachidonic acid: murine fibroblasts, 50 micromolar erastin.
The conditions of data set [4]: INAD children, 3.9 grams D2-LA ethyl ester daily for 1 month then 2.9 grams. The procedure: In this example, children suffering from INAD were treated with a daily dose of 3.9 grams of D2-LA ethyl ester followed by 2.9 grams of D2-LA ethyl ester. Given the age and weight of these children, such is assumed to be substantially equivalent to a loading dose of from about 7 and about 12 grams per day for an adult patient for an adult patient and a maintenance dose which is less than the loading dose again for an adult patient.
This example also determines the concentration of D2-AA in RBCs. Specifically, a cohort of 14 children was provided with a daily dose of 3.9 grams of D2-LA ethyl ester for 1 month followed by 2.9 grams of D2-LA ethyl ester for the remaining six-month period. Blood samples were taken at 3 months for all but 1 child and at 6 months for all children. The concentration of D2-AA in RBCs was measured.

The conditions of data set [5]: ALS patients on D2-LA; based on total AA and D2-AA; 'when calculated'. The procedure:
as §1, §2

For data set [6] the following is noted: 6 months; 15 INAD infants treated.
Setting [7] is: 3 months, single patient, daily 9 grams D2-LA ethyl ester.
The mark [8] stands for this setting: 6 months, single patient, daily 9 grams D2-LA ethyl ester.

The text below walks through data of patent US20230165824A1, “METHODS, SYSTEMS AND COMPOSITIONS FOR INHIBITION OF CELLULAR DYSFUNCTION AND CELL DEATH WITH DEUTERATED PUFAs” (BioJiva LLC, priority 2021, published 2023).

Where two headings read alike, the source gives them in different places.

Description for murine fibroblasts: In this example, two different pools of cells were each seeded in 48-well plates and treated with 50 micromolar of erastin.
Afterwards, cell viability was measured by plate dilution assay to distinguish between cells that are alive and those that are dead on a Petri dish.

With `[2H]C([2H])(/C=C\CCCCC)/C=C\CCCCCCCC(=O)O` [D2-LA, 11,11-D2-Linoleic Acid], the “Concentration of D2-LA in CSF” value in data set [1] (1 month, single patient, daily dose of 9 grams of D2-LA ethyl ester) was 19.8%. Also, the “Concentration of D2-LA in RBCs” value in data set [1] (setting [7]) is listed as 34.7%; in data set [1] (setting [8]), 34.5%. Moreover, the “Annualized rate of decline (ALSFRS-R) during treatment” value in data set [2] (different dosing amounts and periods of D2-LA (some 2 grams per day), pre-treatment −14.2+/−4.4) is −7.6+/−1.4 per year. For the same molecule, the “Reduction in rate of decline vs pre-treatment” value in data set [2] (p=0.07, paired t-test for within-subject change in slope) was found to be 46%. In addition, the “Annualized average reduction in the rate of disease progression” value in the data set with patients with ALS (cohort of 3 ALS patients) is recorded as roughly 90%. The “Deaths due to other causes” value in data set [3] (19 INAD infants treated) came to 2. This molecule also registered a Non-fatal pneumonia in data set [3] (19 INAD infants treated) of 2. The molecule further registered a Serious events in data set [3] (19 INAD infants treated at least 1 year and up to 2.5 years) of 4. In data set [3] (19 INAD infants treated at least 1 year and up to 2.5 years, natural history 10/37), the “No. of Aspirations resulting in pneumonias” value is on record as 2/19. Besides, in data set [3] (19 INAD infants treated, mortality from pneumonias, natural history 21.6%), the Percent mortality is 0%. Also, the “Fatal Pneumonias” value in data set [3] (19 INAD infants treated, natural history 8) was found to be 0. For the same molecule, in data set [3] (19 INAD infants treated, natural history 27.0%), the “Percent Pneumonias” value is 10.5%. The “Deaths due to aspiration pneumonia” value in data set [3] (19 subjects over 2.5 years treatment) was “no deaths due to aspiration pneumonia”.
Turning to `[2H]C([2H])(/C=C\CCCCC)/C=C\CCCCCCCC(=O)OCC` [D2-LA ethyl ester, 11,11-D2-linoleic acid ethyl ester], the “Functional Rate Decline During Therapy” value in the data set on patients with ALS (Patient A, 6 months on regimen, NH rate of decline −16) is given as −3; in the data set on patients with ALS (Patient B, 1 year on regimen, NH rate of decline −31) it was −2; in the data set with patients with ALS (Patient C, 9 months on regimen, NH rate of decline −16) it was −1.3. For the same molecule, the “Annualized average reduction in the rate of disease progression” value in the data set with patients with ALS (cohort of 3 ALS patients) was found to be 90%. In addition, the “Average annual rate of functional decline (ALSFRS-R) during dosing, annualized” value in the data set with patients with ALS (cohort of 3 ALS patients, about 9 grams daily at least 30 days then 5 grams, natural history 21) came out at 2.1.
`[2H]C([2H])(/C=C\CCCCC)/C=C\C([2H])([2H])/C=C\C([2H])([2H])/C=C\CCCC(=O)O`: in the data set with murine fibroblasts, the “% Cell Survival” value is on record as 70.2% and the “Level of protection against LPO induced cell death relative to 13,13-D2-arachidonic acid” value is listed as “approximately twice the level of protection”. Further, the “Level of protection against LPO induced cell death relative to 13,13-D2-arachidonic acid” value in the data set on murine fibroblasts (listed as D6-AA) is on record as “about 2”.
As for `[2H]C([2H])(/C=C\C/C=C\C/C=C\CCCC(=O)O)/C=C\CCCCC` [D2-AA, 13,13-D2-Arachidonic Acid], the “Amount of D2-AA in RBCs at 1 month, estimated by linear extrapolation” value in data set [1] (1 month, extrapolated from 3 and 6 month values (FIG. 1)) is reported as “about 3%”. Also, the “Concentration of D2-AA in CSF” value in data set [1] (1 month, single patient, daily 9 grams D2-LA ethyl ester, based on arachidonic acid + deuterated arachidonic acid) worked out at 8%. The “Concentration of D2-AA in RBCs” value in data set [1] (setting [7]) came to 11.8%; in data set [1] (setting [8]), 16.7%. Besides, the “Average concentration of D2-AA in the RBCs” value in data set [4] (3 months) is reported as 12%; in data set [4] (6 months) it was 16.7%. Also, the “Amount of D2-AA in the patients' RBCs, average” value in data set [5] was “about 3%”. In the data set on murine fibroblasts, the “% Cell Survival” value was 33.2%. For the same molecule, in data set [6], the “Average plasma level of D2-AA” value came to 17.4%.
